Source: patent publication US20260242414A1, “PEPTIDE EXPRESSION CONSTRUCTS AND USES THEREOF” (KYOTO PREFECTURAL PUBLIC UNIVERSITY CORPORATION, priority 2023, published 2026)

Tests used:
H9c2 cells [1] = assay: LPS-induced hyperfission: mitotracker green/MiNA, MitoSOX, TMRM; type: cell-based; conditions: for mitochondrial ROS (MitoSOX): FIG. 8J-8K
Description: Next, lipopolysaccharide (LPS) was used as an external stressor to trigger hyperfission. Briefly, H92c cells were seeded on day 0 and lipofected with an mRNA of a peptide expression unit comprising P110 coding sequence on day 1 and treated with TMP. After 12 hours, the medium was changed, and the cells were treated with LPS for 12 hours and mitochondrial morphology of cells was evaluated using mitotracker green staining and Mitochondrial Network Analysis (MiNA). LPS-induced changes in mitochondrial reactive oxygen species (ROS) production were evaluated using MitoSOX staining. LPS-induced changes in mitochondrial membrane potential were evaluated using TMRM staining. For the purposes of this assessment, mCherry-positive cells were assumed to express transgenic P110, whereas mCherry-negative cells were assumed to lack transgenic P110 and were assessed separately (FIG. 8D). […] LPS treatment was associated with an increase in mitochondrial ROS, which was inhibited in P110-expressing cells (FIGS. 8J-8K), and with an increase in mitochondrial membrane potential per unit volume (FIGS. 8L-8N). Taken together, expression of P110 in cells suppressed mitophagy-related changes induced by LPS treatment.

H9c2 cells [2] = assay: Doxorubicin-induced hyperfission (MiNA) and cell death (DAPI/annexin5 FACS); type: cell-based
Description: The anti-apoptotic effect of peptide expression unit mRNA comprising the P110 coding sequence was assessed in H9c2 cells upon doxorubicin exposure, a treatment that induces mitochondrial stress, hyperfission, and cell death. Briefly, H92c cells were seeded on day 0 and lipofected with an mRNA of a peptide expression unit comprising P110 coding sequence on day 1 and treated with TMP. After 12 hours, the medium was changed, and the cells were treated with doxorubicin for 3 to 6 hours. As with LPS exposure assessments in Example 4, the effect of P110 on hyperfission was assessed via mitotracker green staining, followed by MiNA.
The increase in doxorubicin-induced fission was accompanied by an increase in footprint, a measure of mitochondrial mass, due to the expression of P110 from mRNA expression units, and by an increase in the length, number, and area of branching (FIGS. 9A-9F).

H9c2 cells [3] = assay: Mitochondrial respiration, Seahorse XF Cell Mito Stress Test flux analysis; type: cell-based; conditions: doxorubicin treatment; for mitochondrial respiration (oxygen consumption rate): FIG. 9I; for basal respiration: FIG. 9J; for ATP production: FIG. 9J-9M; for maximum respiration: FIG. 9K; for spare respiratory capacity: FIG. 9M; for proton leakage: FIG. 9N; for non-mitochondrial oxygen consumption: FIG. 9O
Description: Next, the effect of P110 expression on mitochondrial hyperfission was evaluated in the context of mitochondrial respiratory function. Briefly, oligomycin (2 μM), carbonyl cyanide p-trifluoromethoxyphenyl hydrazone (FCCP, 2 μM) and rotenone/antimycin A (0.5 μM), which were adjusted using the reagents in the Seahorse XF Cell Mito Stress Test Kit (103015-100, Agilent Technologies), were sequentially added to each well with 1×10^5 cells after baseline measurements with an XFe96 extracellular flux analyzer (Agilent Technologies, Santa Clara, CA, USA), and data were presented as oxygen consumption rate (pmol/min).

H9c2 cells [4] = assay: Western blot of apoptosis-associated proteins (cleaved caspase-3, cytochrome c, mitochondrial Drp1); type: cell-based; conditions: for Drp1 in mitochondrial fractions (accumulation/aggregation): doxorubicin exposure, FIG. 10G-10H
Description: (§1) P110-expressing cells counteracted doxorubicin-induced apoptosis as well as gene transfer-associated induction of cell death (FIGS. 10A-10B). Next, doxorubicin-induced activation of caspase-3, which is a cysteine-aspartic acid protease that plays a central role in the execution-phase of cell apoptosis, was evaluated.
Hyperfission-associated release of cytochrome c from mitochondria triggers apoptosis; therefore, the release of cytochrome c in response to doxorubicin was evaluated. […] Given that P110 inhibits the recruitment of Drp1 to the mitochondrial membrane during fission, Drp1 in mitochondrial fractions were evaluated to determine whether the introduction of P110 mRNA affected this mechanism.

Drp1-Fis1 = assay: Immunoprecipitation with Fis1 followed by immunoblotting with Drp1; type: cell-based; conditions: doxorubicin treatment, FIG. 10I-10K
Chain of Drp1-Fis1 (O00429 whole entry): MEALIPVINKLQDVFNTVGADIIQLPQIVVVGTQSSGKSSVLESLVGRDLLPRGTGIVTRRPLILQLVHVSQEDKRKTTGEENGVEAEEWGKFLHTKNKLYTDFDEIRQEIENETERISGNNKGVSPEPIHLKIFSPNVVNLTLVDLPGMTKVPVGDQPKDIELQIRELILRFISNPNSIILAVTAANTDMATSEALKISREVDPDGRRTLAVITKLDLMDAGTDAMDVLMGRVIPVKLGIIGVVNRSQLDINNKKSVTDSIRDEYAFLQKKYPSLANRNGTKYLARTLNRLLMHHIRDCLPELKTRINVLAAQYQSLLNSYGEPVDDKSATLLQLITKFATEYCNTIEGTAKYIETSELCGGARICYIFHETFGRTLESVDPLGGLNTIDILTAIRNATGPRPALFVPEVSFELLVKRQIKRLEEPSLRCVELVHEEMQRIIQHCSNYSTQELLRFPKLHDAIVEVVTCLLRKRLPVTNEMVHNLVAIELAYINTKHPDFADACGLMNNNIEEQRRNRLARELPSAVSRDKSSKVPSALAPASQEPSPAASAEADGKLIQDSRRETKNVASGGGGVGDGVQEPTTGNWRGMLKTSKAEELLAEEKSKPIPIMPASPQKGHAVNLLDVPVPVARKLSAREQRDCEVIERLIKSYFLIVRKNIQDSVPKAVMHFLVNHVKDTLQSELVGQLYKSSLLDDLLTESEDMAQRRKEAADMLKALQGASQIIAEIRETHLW
Description: Association of Drp1 and Fis1 is an intracellular PPI that is associated with mitochondrial dysfunction. To determine whether interaction of Fis1 and Drp1 was associated with the accumulation of Drp1 at the mitochondrial membrane, immunoprecipitation with Fis1 followed by immunoblotting with Drp1 was performed.

[5] = molecular target: GFP β strand 1-10 (GFPβ1-10); assay: cell-based or functional assay
[6] = system: GFPP1-10 expressing A549 cells; assay: mCherry and GFP expression in presence and absence of TMP; type: cell-based; conditions: cells transfected with mCherry-DHFR-P2A-GFPβ11, following addition of TMP, FIG. 7B
Source text: The mCherry-DHFR-P2A-GFPβ11 peptide expression unit was introduced into GFPP1-10 expressing A549 cells and mCherry and GFP expression levels were examined in the presence and absence of TMP.
Indeed, the percentage of cells expressing mCherry upon TMP treatment was similar in cells transfected with an m-Cherry only plasmid and cells transfected with a plasmid comprising the mCherry-DHFR-P2A-GFPβ11 peptide expression unit (FIGS. 7C and 7E).

H9c2 cells [7] = assay: Doxorubicin-induced apoptosis, FACS with DAPI and Annexin V; type: cell-based; conditions: doxorubicin-treated cells, FIG. 10A-10B
Description: as §1

[8] = doxorubicin 3 to 6 hours, FIG. 9A-9F

How did the “mitochondrial ROS (MitoSOX)” value (H9c2 cells [1]; LPS treatment 12 hours) turn out when lipopolysaccharide [LPS] was run?
The value was “increase”.

And the “mitochondrial membrane potential per unit volume (TMRM)” value (H9c2 cells [1]; LPS treatment 12 hours, FIG. 8L-8N)?
Its value is “increase”.

With `COc1cccc2c1C(=O)c1c(O)c3c(c(O)c1C2=O)C[C@@](O)(C(=O)CO)C[C@@H]3O[C@H]1C[C@H](N)[C@H](O)[C@H](C)O1` [doxorubicin] as the compound, how does the “cell death, DAPI/annexin5 double positive cells (FACS)” value (H9c2 cells [2]; doxorubicin-treated H9c2 cells, FIG. 9G-9H) read?
The value was ~15 % of cells.

And the “mitochondrial respiration (oxygen consumption rate)” value (H9c2 cells [3])?
Its value is “decreased”.

And the basal respiration (H9c2 cells [3])?
The basal respiration was “significantly decreased”.

What about the ATP production (H9c2 cells [3]) of the same compound?
Its ATP production is “significantly decreased”.

And the maximum respiration (H9c2 cells [3])?
The maximum respiration was “significantly decreased”.

And the spare respiratory capacity (H9c2 cells [3])?
The spare respiratory capacity was “significantly decreased”.

And the proton leakage (H9c2 cells [3])?
The proton leakage was “decrease”.

And the non-mitochondrial oxygen consumption (H9c2 cells [3])?
The non-mitochondrial oxygen consumption was “significantly decreased”.

And the “Drp1 in mitochondrial fractions (accumulation/aggregation)” value (H9c2 cells [4])?
Its value is “strong accumulation”.

What about the “Drp1 co-immunoprecipitated with Fis1” value (Drp1-Fis1) of the same compound?
The value was “significantly enhanced”.

Which GFP-positive fraction of mCherry-positive cells (split GFP complementation), FACS, H9c2 cells [5] does the source give for GFP β strand 11 (GFPβ11) (peptide) here?
The GFP-positive fraction of mCherry-positive cells (split GFP complementation), FACS, H9c2 cells was 40%.

With `COc1cc(Cc2cnc(N)nc2N)cc(OC)c1OC` [TMP, trimethoprim] as the compound, how does the “mCherry expression (FACS)” value [6] read?
The value was “increased sharply”.

With DLLPRGT [P110] as the compound, how does the “mitochondrial ROS (MitoSOX)” value (H9c2 cells [1]; LPS treatment 12 hours) read?
The value was “inhibited”.

And the “indications of hyperfission: branching length, area of branching points, number of branching points (MiNA)” value (H9c2 cells [1]; mCherry-positive cells, LPS 12 hours, FIG. 8D-8I)?
The value was “reversed indications of hyperfission”.

What about the “footprint, a measure of mitochondrial mass (MiNA)” value (H9c2 cells [2]; [8]) of the same compound?
The value was “increase”.

What about the “length, number, and area of branching (MiNA)” value (H9c2 cells [2]; [8]) of the same compound?
The value was “increase”.

And the “mitochondrial respiration (oxygen consumption rate)” value (H9c2 cells [3])?
The value was “attenuated”.

What about the basal respiration (H9c2 cells [3]) of the same compound?
The basal respiration was “significant attenuation”.

And the ATP production (H9c2 cells [3])?
Its ATP production is “significant attenuation”.

And the maximum respiration (H9c2 cells [3])?
Its maximum respiration is “significant attenuation”.

What about the spare respiratory capacity (H9c2 cells [3]) of the same compound?
The spare respiratory capacity was “comparable to that observed in untreated control cells”.

And the proton leakage (H9c2 cells [3])?
The proton leakage was “slightly improved”.

And the non-mitochondrial oxygen consumption (H9c2 cells [3])?
The non-mitochondrial oxygen consumption was “significant attenuation”.

And the “doxorubicin-induced apoptosis (DAPI/Annexin V FACS)” value (H9c2 cells [7])?
Its value is “counteracted”.

What about the non-mitochondrial apoptotic pathways (H9c2 cells [4]; doxorubicin) of the same compound?
The non-mitochondrial apoptotic pathways was “unaffected”.

What about the “Drp1 in mitochondrial fractions (accumulation/aggregation)” value (H9c2 cells [4]) of the same compound?
The value was “significantly prevented”.

And the cytochrome c release (H9c2 cells [4]; doxorubicin, FIG. 10E-10F)?
Its cytochrome c release is “completely suppressed”.

What about the “cleaved caspase-3 expression (western blot)” value (H9c2 cells [4]; effects of gene transfer method and doxorubicin, FIG. 10C-10D) of the same compound?
Its value is “reduced”.

And the “Drp1 co-immunoprecipitated with Fis1” value (Drp1-Fis1)?
Its value is “restored to almost control levels”.
